# Laboratory results as given in patent US20250345512A1, “COMBINATION SODIUM-GLUCOSE COTRANSPORTER INHIBITOR (SGLTI) INSULIN THERAPY FOR GLYCEMIC CONTROL IN TYPE 1 DIABETES” (University of Virginia Patent Foundation, priority 2022, published 2025).
# System: participants with T1D
# Design: species or system human
# Details: in vivo
# Description: FIG. 2 presents a study analysis relative to baseline, control IQ (CIQ) (e.g., AID), and basal IQ (BIQ) (e.g., PLGS) implementation, according to investigation that is demonstrable of one or more embodiments herein. Therein, an experimental arm (G1, G2) providing an initial daily dose of 5 mg empagliflozin (EMPA) is depicted against a control arm (G3, G4) without such dosing (NOEMPA). Relative characteristics of the analysis are provided below.
# Study Design: A single-center, randomized, controlled, unblinded, crossover clinical trial (NCT04201496) compared four parallel groups, two groups in the experimental arm (EMPA) with 5 mg daily empagliflozin as adjunctive therapy to PLGS or AID, and two groups in the control arm (NOEMPA) with no drug and with a PLGS system (Basal-IQ, Tandem Diabetes Care) or AID system (Control-IQ, Tandem Diabetes Care). […] A tolerance to the medication was assessed prior to the starting of the next study phase, including adherence to the protocol, ketone testing 2-4 times per day with monitored values not greater than 0.6 mmol/L on at least two successive occasions (the first testing upon waking in a fasted state), no adverse events relating to perineal infection or symptomatic postural hypotension, and no evidence of significant hypoglycemia <54 mg/dL, or any other listed adverse effects of the medication. […]
structure (smiles),measurement,value
"OC[C@H]1O[C@@H](c2ccc(Cl)c(Cc3ccc(O[C@H]4CCOC4)cc3)c2)[C@H](O)[C@@H](O)[C@@H]1O [CIQ-EMPA, empagliflozin]",Difference (95% CI): Ketones,0.02 mmol/L
